Marks after values point to notes of the source that are not given here.
How the values were obtained:
HaCaT cells [1] = assay: H2DCF-DA test, production of ROS after oil then preservative (POE or MIT); format: cell-based
Description: (§1) The following standards and methods were used to measure the properties hereinabove: • flash point: EN ISO 2719 • density at 15° C.: EN ISO 1185 • viscosity at 40° C.: EN ISO 3104 • aniline point: EN ISO 2977 • boiling point: ASTM D86 • biodegradability: OECD method 306 • refractive index at 20° C.: ASTM D 1218 • vapour pressure: calculated according to methods well known to those skilled in the art Tests for Anti-Wrinkle or Anti-Ageing Cosmetic Applications Preparation of the Tests: • Preparation of the microplates: 24 hours before the incubation with the oils A and B, the HaCaT cells are inoculated with a cell density of 100,000 cells/ml in 96-well microplates (Corning). […]
The cellular effects are evaluated directly on the adherent living cells by cytofluorimetric microtitration (MiFALC tests-Microtitration Fluorimetric Assays on Live Cells). The microplate reader used in the study is the Safire cytometer (Tecan).
The test H2DCF-DA (2′,7′-dihydrodichlorofluoresceine diacetate) is used in order to evaluate the production of reactive oxygen species. […] Thus, an increase in the intensity of fluorescence is combined with an increase in the production of reactive oxygen species (ROS) and by extrapolation with an increase in the oxidative stress in the cells studied.
Preservatives, used as an additive in cosmetic compositions, were evaluated. […]

HaCaT cells [2] = assay: HOECHST 33342 test, condensation of the chromatin; format: cell-based; details: one hour with oil or CM, then 20 minutes with BAC 8 ppm by weight, HOECHST 33342, HaCat cells
Description: as §1, with “(Corning). The microplates are then placed in the incubator at 37° C. In a microplate, each condition was tested at least three times. Each experiment was carried out at least three times independently in order to validate the reproducibility of the results and to carry out statistical analyses. • Incubation of cells with the oils A or B: two durations of incubation were selected for the products to be tested pure: an incubation for fifteen minutes and an incubation for one hour.” for “(Corning).”
The cellular effects are evaluated directly on the adherent living cells by cytofluorimetric microtitration (MiFALC tests-Microtitration Fluorimetric Assays on Live Cells). The microplate reader used in the study is the Safire cytometer (Tecan). […]

Compound: phenoxyethanol [CM + POE]
- Production of ROS (HaCaT cells [1]; oil or CM (e.g. 15 minutes) then POE (e.g. 30 minutes, phenoxyethanol 250 μg/mL)): 132 % relative to the CM

Compound: benzalkonium chloride [CM + BAC]
- Measurement of the condensation of the chromatin (HaCaT cells [2]): 138*** % relative to the CM

Compound: Cn1sccc1=O [MIT, methylisothiazolinone]
- Production of ROS (HaCaT cells [1]; oil or none, then MIT): 135 % relative to the CM

Source: US11759411B2, “Non-therapeutic use of a biodegradable hydrocarbon oil” (TOTAL MARKETING SERVICES, priority 2017, dated 2023)
